According to patent US20100216791A1, “PYRIDINYLQUINAZOLINAMINE DERIVATIVES AND THEIR USE AS B-RAF INHIBITORS” (ASTRAZENECA, priority 2006, published 2010):
Read-outs that look alike come from different tables or passages of the source.

Target: Mutant B-Raf (V600E) enzyme (MT B-Raf) (Homo sapiens, UniProt P15056, V600E)
Assay: biochemical
[1] = B-Raf Alpha screen comparable to the described assay, phosphorylation of biotinylated HIS-MEK-AVI, results may be an average of two or more results

Sequence of Mutant B-Raf (V600E) enzyme (MT B-Raf) (P15056 whole entry V600E): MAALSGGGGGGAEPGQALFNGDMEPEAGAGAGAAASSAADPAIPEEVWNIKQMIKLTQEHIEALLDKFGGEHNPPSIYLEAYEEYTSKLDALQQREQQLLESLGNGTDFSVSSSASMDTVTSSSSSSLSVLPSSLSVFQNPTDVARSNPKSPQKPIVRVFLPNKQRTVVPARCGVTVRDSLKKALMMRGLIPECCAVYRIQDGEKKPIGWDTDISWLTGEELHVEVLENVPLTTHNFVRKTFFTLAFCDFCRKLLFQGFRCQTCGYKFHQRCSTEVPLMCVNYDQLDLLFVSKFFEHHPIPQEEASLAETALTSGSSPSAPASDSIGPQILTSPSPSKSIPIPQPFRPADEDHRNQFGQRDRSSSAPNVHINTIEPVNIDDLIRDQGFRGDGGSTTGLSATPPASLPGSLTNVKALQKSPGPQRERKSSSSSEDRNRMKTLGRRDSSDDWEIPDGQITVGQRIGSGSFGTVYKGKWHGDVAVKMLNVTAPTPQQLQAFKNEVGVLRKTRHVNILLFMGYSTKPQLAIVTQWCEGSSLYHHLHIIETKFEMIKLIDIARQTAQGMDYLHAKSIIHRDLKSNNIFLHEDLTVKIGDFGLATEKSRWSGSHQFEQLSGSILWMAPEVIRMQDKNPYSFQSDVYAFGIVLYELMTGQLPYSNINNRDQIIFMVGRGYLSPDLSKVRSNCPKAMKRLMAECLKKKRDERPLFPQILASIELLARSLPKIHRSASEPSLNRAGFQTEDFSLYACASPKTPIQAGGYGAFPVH

Work on `COCCNC(=O)c1cccc(Nc2ncc3cc(-c4ccncc4)ccc3n2)n1` [Example 38, N-(2-Methoxyethyl)-6-[(6-pyridin-4-ylquinazolin-2-yl)amino]pyridine-2-carboxamide] yielded an IC50 [1] of 1500 nM.

`COCCNS(=O)(=O)c1ccc(Nc2ncc3cc(-c4ccncc4)ccc3n2)cc1` [Example 113] was tested, and the IC50 [1] was 100 nM.

`Cc1cccc(Nc2ncc3cc(-c4ccncc4)ccc3n2)c1` [Example 83, N-(3-Methylphenyl)-6-pyridin-4-ylquinazolin-2-amine] was tested, and the IC50 [1] was 630 nM.

Work on `CN(C)C(=O)c1ccc(Nc2ncc3cc(-c4ccncc4)ccc3n2)cc1` [Example 30, N,N-Dimethyl-4-[(6-pyridin-4-ylquinazolin-2-yl)amino]benzamide] yielded an IC50 [1] of 83 nM.

Compound `O=S(=O)(c1cccc(Nc2ncc3cc(-c4ccncc4)ccc3n2)c1)N1CCCCC1` [Example 100, N-[3-(Piperidin-1-ylsulfonyl)phenyl]-6-pyridin-4-ylquinazolin-2-amine] has an IC50 [1] of 1000 nM.

`Cc1cc(Nc2ncc3cc(-c4ccncc4)ccc3n2)ccc1C(=O)N(C)C` [Example 50] gave an IC50 of 150 nM.

Work on `CN(C)C1CCN(C(=O)c2ccc(Nc3ncc4cc(-c5ccncc5)ccc4n3)cc2)C1` (stereo not drawn) [Example 117] yielded an IC50 [1] of 73 nM.

In the case of `O=C(NCC1CCNCC1)c1ccc(Nc2ncc3cc(-c4ccncc4)ccc3n2)cc1` [Example 64, N-(Piperidin-4-ylmethyl)-4-[(6-pyridin-4-ylquinazolin-2-yl)amino]benzamide], the IC50 [1] is reported as 22 nM.

Work on `CN1CCCC1CCNCc1ccc(Nc2ncc3cc(-c4ccncc4)ccc3n2)cc1` (stereo not drawn) [Example 72, N-[4-({[2-(1-Methylpyrrolidin-2-yl)ethyl]amino}methyl)phenyl]-6-pyridin-4-ylquinazolin-2-amine] yielded an IC50 [1] of 260 nM.

Compound `c1cc(-c2ccc3nc(Nc4ccc(CNCCN5CCOCC5)cc4)ncc3c2)ccn1` [Example 70, N-(4-{[(2-Morpholin-4-ylethyl)amino]methyl}phenyl)-6-pyridin-4-ylquinazolin-2-amine] has an IC50 [1] of 74 nM.

Work on `CCN(CCO)Cc1ccc(Nc2ncc3cc(-c4ccncc4)ccc3n2)cc1` [Example 77, 2-(Ethyl{4-[(6-pyridin-4-ylquinazolin-2-yl)amino]benzyl}amino)ethanol] yielded an IC50 [1] of 99 nM.

With `c1cc(-c2ccc3nc(Nc4ccc(N5CCCCC5)cc4)ncc3c2)ccn1` [Example 89, N-(4-Piperidin-1-ylphenyl)-6-pyridin-4-ylquinazolin-2-amine] the IC50 [1] was 280 nM.

`c1cnn(-c2ccc(Nc3ncc4cc(-c5ccncc5)ccc4n3)cc2)c1` [Example 108, N-[4-(1H-Pyrazol-1-yl)phenyl]-6-pyridin-4-ylquinazolin-2-amine] gave an IC50 [1] of 250 nM.

`CC1(C)OCC(CNC(=O)c2ccc(Nc3ncc4cc(-c5ccncc5)ccc4n3)cc2)O1` (stereo not drawn) [Example 16, N-[(2,2-Dimethyl-1,3-dioxolan-4-yl)methyl]-4-[(6-pyridin-4-ylquinazolin-2-yl)amino]benzamide] showed an IC50 [1] of 200 nM.

`Cc1cc(Nc2ncc3cc(-c4ccncc4)ccc3n2)ccc1C(=O)NCCN1CCOCC1` [Example 33, 2-Methyl-N-(2-morpholin-4-ylethyl)-4-[(6-pyridin-4-ylquinazolin-2-yl)amino]benzamide] showed an IC50 [1] of 160 nM.
